Holding throughout (assay type): functional, cell-based
Series [1] addresses T1, NTCP (hepatic sodium/bile acid cotransporter) (Homo sapiens, UniProt Q14973).
T1 sequence (Q14973 whole entry): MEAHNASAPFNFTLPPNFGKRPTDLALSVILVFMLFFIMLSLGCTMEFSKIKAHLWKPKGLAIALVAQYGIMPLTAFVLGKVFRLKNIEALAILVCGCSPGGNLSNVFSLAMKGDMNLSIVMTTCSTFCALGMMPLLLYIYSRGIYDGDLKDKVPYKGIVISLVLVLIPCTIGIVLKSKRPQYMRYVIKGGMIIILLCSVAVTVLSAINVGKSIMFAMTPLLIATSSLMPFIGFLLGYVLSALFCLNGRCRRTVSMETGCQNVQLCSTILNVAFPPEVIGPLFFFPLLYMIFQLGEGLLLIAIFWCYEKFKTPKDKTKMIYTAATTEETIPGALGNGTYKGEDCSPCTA
As to the kind of experiment: TP_TRANSPORTER: inhibition of Taurocholate uptake (Ursodeoxycholate:10 micro;M) in NTCP-expressing HeLa cells. The arrangement: scale not given: the % may be the effect or the level left. The note with it: HeLa cells that express NTCP, probe taurocholate, read-out: Activity.

Series [2] addresses T2, Solute carrier organic anion transporter family member 1B1 (Homo sapiens, UniProt Q9Y6L6).
T2 sequence (Q9Y6L6 whole entry): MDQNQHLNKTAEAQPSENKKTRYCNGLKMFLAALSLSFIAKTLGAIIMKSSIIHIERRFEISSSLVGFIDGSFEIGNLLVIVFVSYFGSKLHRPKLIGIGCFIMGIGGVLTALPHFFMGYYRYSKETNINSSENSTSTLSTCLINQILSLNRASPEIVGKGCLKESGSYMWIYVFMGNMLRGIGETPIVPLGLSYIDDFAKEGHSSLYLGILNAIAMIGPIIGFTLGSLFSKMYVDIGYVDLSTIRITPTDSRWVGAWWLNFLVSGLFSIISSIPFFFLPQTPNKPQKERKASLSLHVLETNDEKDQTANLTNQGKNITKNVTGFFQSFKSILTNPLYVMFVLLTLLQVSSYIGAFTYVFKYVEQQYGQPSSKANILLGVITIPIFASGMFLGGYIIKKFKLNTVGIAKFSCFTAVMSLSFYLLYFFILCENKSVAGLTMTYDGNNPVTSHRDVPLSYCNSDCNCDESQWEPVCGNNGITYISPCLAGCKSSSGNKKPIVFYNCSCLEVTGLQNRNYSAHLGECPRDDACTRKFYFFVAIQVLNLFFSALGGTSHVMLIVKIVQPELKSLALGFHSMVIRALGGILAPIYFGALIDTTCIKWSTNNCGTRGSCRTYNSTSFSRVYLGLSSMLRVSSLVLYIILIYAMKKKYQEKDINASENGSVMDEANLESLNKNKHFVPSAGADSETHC
As to the kind of experiment: TP_TRANSPORTER: uptake in OATP1B1-expressing Tet-on HeLa cells.

Series [3] has as its target T1, NTCP (hepatic sodium/bile acid cotransporter). As to the kind of experiment: TP_TRANSPORTER: inhibition of Taurocholate uptake (Caspofungin:100 uM) in NTCP-expressing HeLa cells. Set-up: scale not given: the % may be the effect or the level left. The note with it: HeLa cells that express NTCP, probe taurocholate, read-out: Activity.
Series [4] addresses T3, Solute carrier organic anion transporter family member 1B3 (Homo sapiens, UniProt Q9NPD5).
T3 sequence (Q9NPD5 whole entry): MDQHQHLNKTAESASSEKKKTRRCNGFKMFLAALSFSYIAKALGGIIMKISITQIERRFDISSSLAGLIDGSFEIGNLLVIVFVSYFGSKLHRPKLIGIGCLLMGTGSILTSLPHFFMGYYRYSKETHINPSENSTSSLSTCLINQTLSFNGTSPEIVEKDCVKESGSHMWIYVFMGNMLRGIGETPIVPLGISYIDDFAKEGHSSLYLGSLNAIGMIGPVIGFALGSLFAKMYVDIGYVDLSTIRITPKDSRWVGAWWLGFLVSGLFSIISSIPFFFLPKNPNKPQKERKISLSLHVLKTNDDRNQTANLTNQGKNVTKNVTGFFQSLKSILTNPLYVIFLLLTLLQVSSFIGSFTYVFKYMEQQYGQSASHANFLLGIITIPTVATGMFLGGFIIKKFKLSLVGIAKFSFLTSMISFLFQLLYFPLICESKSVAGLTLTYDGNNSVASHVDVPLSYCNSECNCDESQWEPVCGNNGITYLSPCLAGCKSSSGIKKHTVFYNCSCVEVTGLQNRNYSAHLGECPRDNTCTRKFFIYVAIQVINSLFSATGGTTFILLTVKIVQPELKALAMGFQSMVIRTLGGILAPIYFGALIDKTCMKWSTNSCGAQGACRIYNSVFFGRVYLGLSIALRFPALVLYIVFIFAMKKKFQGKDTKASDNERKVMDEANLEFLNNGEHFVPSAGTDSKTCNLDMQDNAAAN
In words: TP_TRANSPORTER: uptake in OATP1B3-expressing Tet-on HeLa cells.

Series [5] concerns the target T4, OCT1 (solute carrier family 22 member 1) (Homo sapiens, UniProt O15245).
T4 sequence (O15245 whole entry): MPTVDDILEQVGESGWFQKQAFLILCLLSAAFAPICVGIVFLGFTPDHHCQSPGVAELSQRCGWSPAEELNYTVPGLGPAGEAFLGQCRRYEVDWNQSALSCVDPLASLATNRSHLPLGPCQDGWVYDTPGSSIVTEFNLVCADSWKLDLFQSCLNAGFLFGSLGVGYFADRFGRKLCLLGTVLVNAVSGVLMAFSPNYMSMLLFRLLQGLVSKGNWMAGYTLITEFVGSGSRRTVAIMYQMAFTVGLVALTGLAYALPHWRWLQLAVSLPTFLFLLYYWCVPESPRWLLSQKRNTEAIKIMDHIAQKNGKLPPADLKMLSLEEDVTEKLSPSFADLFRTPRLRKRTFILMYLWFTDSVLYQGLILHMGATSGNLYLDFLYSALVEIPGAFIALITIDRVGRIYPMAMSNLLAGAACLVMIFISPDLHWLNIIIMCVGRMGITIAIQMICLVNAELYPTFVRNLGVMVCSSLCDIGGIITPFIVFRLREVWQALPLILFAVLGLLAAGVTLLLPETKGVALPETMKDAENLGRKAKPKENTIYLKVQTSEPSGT
As to the kind of experiment: TP_TRANSPORTER: inhibition of Tetraethyl ammonium uptake (Caspofungin:100 uM) in OCT1-expressing HeLa cells. The arrangement: scale not given: the % may be the effect or the level left. The note with it: HeLa cells that express OCT1, probe tetraethyl ammonium, read-out: Activity.

Series [6] deals with T2, Solute carrier organic anion transporter family member 1B1. As to the kind of experiment: TP_TRANSPORTER: inhibition of estradiol-17beta-D-glucuronide uptake (Caspofungin:100 uM) in OATP1B1-expressing HeLa cells. Set-up: scale not given: the % may be the effect or the level left.
The target in series [7] is ATP-dependent translocase ABCB1 (Homo sapiens, UniProt P08183). In words: TP_TRANSPORTER: cell accumulation of vinblastine in KB-V1 cells.
ATP-dependent translocase ABCB1, sequence (P08183 whole entry): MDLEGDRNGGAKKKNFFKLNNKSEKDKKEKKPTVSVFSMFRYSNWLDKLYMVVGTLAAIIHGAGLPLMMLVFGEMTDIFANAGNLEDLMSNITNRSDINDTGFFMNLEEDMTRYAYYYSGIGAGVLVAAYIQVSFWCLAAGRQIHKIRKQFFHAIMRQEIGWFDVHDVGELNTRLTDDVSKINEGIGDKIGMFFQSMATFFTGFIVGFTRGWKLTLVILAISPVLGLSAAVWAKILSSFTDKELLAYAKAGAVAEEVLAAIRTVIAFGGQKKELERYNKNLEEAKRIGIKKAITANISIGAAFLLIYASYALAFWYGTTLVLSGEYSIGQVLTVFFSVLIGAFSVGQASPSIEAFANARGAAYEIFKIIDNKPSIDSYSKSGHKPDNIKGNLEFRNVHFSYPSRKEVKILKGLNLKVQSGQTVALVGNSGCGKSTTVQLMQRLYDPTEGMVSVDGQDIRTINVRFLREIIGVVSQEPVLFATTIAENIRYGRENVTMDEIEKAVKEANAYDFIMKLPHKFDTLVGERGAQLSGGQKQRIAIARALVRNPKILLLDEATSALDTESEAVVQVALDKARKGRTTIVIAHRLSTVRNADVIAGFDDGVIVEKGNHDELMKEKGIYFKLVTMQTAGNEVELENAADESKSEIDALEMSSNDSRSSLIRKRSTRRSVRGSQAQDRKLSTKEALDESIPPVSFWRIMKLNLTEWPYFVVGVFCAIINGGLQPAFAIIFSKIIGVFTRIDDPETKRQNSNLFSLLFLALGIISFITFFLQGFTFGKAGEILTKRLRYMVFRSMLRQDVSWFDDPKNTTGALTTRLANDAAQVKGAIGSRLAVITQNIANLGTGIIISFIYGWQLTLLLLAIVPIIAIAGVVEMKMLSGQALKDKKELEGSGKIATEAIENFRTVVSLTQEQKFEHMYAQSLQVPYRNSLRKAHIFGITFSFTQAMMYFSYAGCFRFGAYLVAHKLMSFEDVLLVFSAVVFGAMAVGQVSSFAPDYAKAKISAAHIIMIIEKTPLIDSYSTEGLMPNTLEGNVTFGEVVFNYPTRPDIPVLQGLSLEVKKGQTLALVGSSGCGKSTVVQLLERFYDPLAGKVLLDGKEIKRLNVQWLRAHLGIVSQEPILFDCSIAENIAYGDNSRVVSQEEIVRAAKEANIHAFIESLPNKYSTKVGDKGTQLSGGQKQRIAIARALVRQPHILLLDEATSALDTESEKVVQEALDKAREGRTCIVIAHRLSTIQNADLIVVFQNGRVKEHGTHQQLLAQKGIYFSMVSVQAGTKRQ
Series [8] has as its target T5, Solute carrier family 22 member 6 (Homo sapiens, UniProt Q4U2R8).
T5 sequence (Q4U2R8 whole entry): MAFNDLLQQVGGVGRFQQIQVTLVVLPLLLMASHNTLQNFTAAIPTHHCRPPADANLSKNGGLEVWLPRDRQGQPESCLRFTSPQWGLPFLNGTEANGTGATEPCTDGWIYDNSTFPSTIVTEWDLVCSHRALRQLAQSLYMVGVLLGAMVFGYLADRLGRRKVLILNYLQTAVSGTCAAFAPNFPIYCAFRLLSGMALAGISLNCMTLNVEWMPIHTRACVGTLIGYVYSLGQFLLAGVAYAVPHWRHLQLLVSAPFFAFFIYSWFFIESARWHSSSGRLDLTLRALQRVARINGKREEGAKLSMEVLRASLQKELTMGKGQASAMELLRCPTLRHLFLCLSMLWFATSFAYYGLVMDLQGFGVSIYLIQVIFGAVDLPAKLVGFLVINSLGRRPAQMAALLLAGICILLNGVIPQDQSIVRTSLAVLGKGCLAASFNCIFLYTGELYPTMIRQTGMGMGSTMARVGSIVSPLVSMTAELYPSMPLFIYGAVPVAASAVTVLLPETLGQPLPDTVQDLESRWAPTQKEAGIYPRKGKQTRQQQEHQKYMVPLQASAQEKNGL
In words: TP_TRANSPORTER: inhibition of p-amino hippurate uptake (Caspofungin:100 uM) in OAT1-expressing HeLa cells. The arrangement: scale not given: the % may be the effect or the level left.

For series [9], the target named is T6, OATP1B1 (solute carrier organic anion transporter family member 1B1) (Homo sapiens, UniProt Q9Y6L6).
T6 sequence (Q9Y6L6 whole entry): T2 sequence (Q9Y6L6 whole entry)
In words: TP_TRANSPORTER: inhibition of estradiol-17beta-D-glucuronide uptake (Lovastatin:10 uM) in OATP1B1-expressing HeLa cells. The note with it: HeLa cells that express OATP1B1, probe estradiol-17beta-D-glucuronide, read-out: Activity. Set-up: scale not given: the % may be the effect or the level left.

The target of series [10] is T5, Solute carrier family 22 member 6. In words: TP_TRANSPORTER: inhibition of p-amino hippurate uptake (Indomethacin:100 uM) in OAT1-expressing HeLa cells. Set-up: scale not given: the % may be the effect or the level left.
Series [11] deals with T4, OCT1 (solute carrier family 22 member 1). In words: TP_TRANSPORTER: inhibition of Tetraethyl ammonium uptake (Quinidine:100 uM) in OCT1-expressing HeLa cells. The settings on record: HeLa cells that express OCT1, probe tetraethyl ammonium, read-out: Activity. The arrangement: scale not given: the % may be the effect or the level left.

Turning to `C[C@H](CCC(=O)O)[C@H]1CC[C@H]2[C@@H]3[C@@H](O)C[C@@H]4C[C@H](O)CC[C@]4(C)[C@H]3CC[C@]12C` [URSODIOL], in series [1], the activity at 10 µM turned out to be 30%.

Turning to `CC[C@H](C)C[C@H](C)CCCCCCCCC(=O)N[C@H]1C[C@@H](O)[C@@H](NCCN)NC(=O)[C@@H]2[C@@H](O)CCN2C(=O)[C@H]([C@H](O)CCN)NC(=O)[C@H]([C@H](O)[C@@H](O)c2ccc(O)cc2)NC(=O)[C@@H]2C[C@@H](O)CN2C(=O)[C@H]([C@@H](C)O)NC1=O` [CASPOFUNGIN], the Activity result in series [2] was “substrate [+]”; in series [4], “is not a substrate [-]”; in series [6] it was 5%; in [7] it was “inhibitor [+]”; in [8] it was 40%. Besides, the results for the activity at 100 µM in [3] and in series [5] were 10% and 30%, respectively.

On to `CC[C@H](C)C(=O)O[C@H]1C[C@@H](C)C=C2C=C[C@H](C)[C@H](CC[C@@H]3C[C@@H](O)CC(=O)O3)[C@H]21` [LOVASTATIN], for which the activity at 10 µM in [9] was 40%.

In series [10], `COc1ccc2c(c1)c(CC(=O)O)c(C)n2C(=O)c1ccc(Cl)cc1` [INDOMETHACIN] registered an Activity of 20%.

Consider `C=C[C@H]1C[N@@]2CC[C@H]1C[C@@H]2[C@@H](O)c1ccnc2ccc(OC)cc12` [QUINIDINE], for which the activity at 100 µM in [11] came out at 20%.

The values above are taken from ChEMBL document CHEMBL2074299, “Hepatic uptake of the novel antifungal agent caspofungin” (Drug Metab Dispos, 2005).
